Biological target: T1, CX43 (connexin 43; recombinant human CX43) (Homo sapiens, UniProt P17302)
T1 construct: gene GJA1; recombinant human CX43 from GenScript, immobilised on CM5 chip
Experiment: SPR, Biacore T200, CX43 immobilised on CM5 chip
Type: binding

T1 sequence (P17302 2-382): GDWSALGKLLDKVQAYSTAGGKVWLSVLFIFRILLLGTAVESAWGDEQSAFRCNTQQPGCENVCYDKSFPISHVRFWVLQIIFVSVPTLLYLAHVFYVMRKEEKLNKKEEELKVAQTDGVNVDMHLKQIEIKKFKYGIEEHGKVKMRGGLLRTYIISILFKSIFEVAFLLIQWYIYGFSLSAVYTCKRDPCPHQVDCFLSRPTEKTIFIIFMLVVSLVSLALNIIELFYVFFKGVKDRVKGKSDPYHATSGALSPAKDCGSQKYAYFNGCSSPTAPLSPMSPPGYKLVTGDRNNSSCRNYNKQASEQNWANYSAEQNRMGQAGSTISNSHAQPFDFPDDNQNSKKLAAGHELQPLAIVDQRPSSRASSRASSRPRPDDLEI

Kd: 0.0142 nM
SMILES: NC(=O)c1ccc[n+]([C@@H]2O[C@H](COP(=O)([O-])OP(=O)(O)OC[C@H]3O[C@@H](n4cnc5c(N)ncnc54)[C@H](O)[C@@H]3O)[C@@H](O)[C@H]2O)c1 [NAD^+]
